Assay results from patent US20180289709A1, “METHODS OF TREATING INFLAMMATION” (priority 2010, published 2018).
Entries after “also recorded” stand apart in the source; their conditions may differ. Read-outs that look alike come from different tables or passages of the source.

How the values were obtained:
[1] = tested on: BMDCs; test: qPCR of antiviral and inflammatory gene mRNAs in TLR-stimulated BMDCs; conditions: for transcription of mRNAs for antiviral cytokines (Ifnb1, Cxcl10): inhibitor 1 hour prior to stimulation
[2] = tested on: BMDCs; test: Genome-wide mRNA profiles (microarray) of BMDCs treated with BI 2536 or DMSO before LPS or poly(I:C); type: cell-based, mouse; conditions: for antiviral genes among genes repressed by BI 2536 compared to DMSO: at least 3-fold change
[3] = tested on: BMDCs; test: IFN-β ELISA of BMDC culture supernatants; type: cell-based, mouse; conditions: BMDC supernatant, LPS 6 h; 1 μM
Method: Cell culture supernatants were assayed using a sandwich ELISA kit for mouse IFN-β (PBL Biomedical Laboratories).

[4] = tested on: BMDCs; test: BMDC viability (Alamar blue); type: cell-based, mouse; conditions: treatment pre-stimulation
[5] = tested on: BMDCs; test: Cell cycle analysis (propidium iodide DNA content, flow cytometry); type: cell-based, mouse; conditions: propidium iodide DNA content after 0, 6, 12 h treatment
Method: Cells were fixed in ethanol, washed, and stained for 30 min at room temperature (RT) with propidium iodide (100 μg/mL) prepared in PBS (calcium- and magnesium-free) supplemented with RNAse A (2 mg/mL; Novagen) and triton X-100 (0.1%). Samples were analyzed for DNA content using an Accuri C6 flow cytometer (Accuri) and data was processed using the FlowJo software (Treestar).

[6] = tested on: IRF3; test: IRF3 nuclear translocation by confocal microscopy, BMDCs on silicon nanowires; type: cell-based, mouse
Method: (§1) BMDCs were plated on top of etched silicon nanowires (Si NWs) coated with small molecules (Shalek et al., 2010). After 24 hours, cells were stimulated with LPS or poly(I:C), and then fixed in 4% formaldehyde in PBS (RT, 10 min). After fixation, each sample was permeabilized with 0.25% Triton-X 100 in PBS (RT, 10 min), incubated with Image-iT FX Signal Enhancer (RT, 30 min), and then blocked with 10% goat serum and 0.25% Triton-X 100 in PBS (RT, 1 hour). After washing, the samples were placed in 3% IgG-Free BSA & 0.25% Triton-X 100 in PBS that contained primary antibodies against either IRF3 or NF-κB P65 (1:175 dilution) and then rocked overnight at 4° C. The following day, the samples were washed with PBS and then incubated with an Alexa Fluor labeled secondary antibody (1:250 dilution) in 3% IgG-Free BSA & 0.25% Triton-X 100 in PBS (RT, 60 min). After washing with PBS, the samples were counterstained with 300 ng/mL of DAPI in PBS (RT, 30 min). For each experiment, every stimulus-molecule combination was prepared in triplicate. Once fixed, samples were imaged using an upright confocal microscope (Olympus). For each captured image, the nuclear fraction of the fluorescent protein was calculated after identifying nuclear boundaries using DAPI. Finally, distributions for this quantity across different conditions were compared using a one-way ANOVA analysis.

[7] = tested on: NF-κB p65; test: NF-κB p65 nuclear translocation by confocal microscopy, BMDCs on silicon nanowires; type: cell-based, mouse; conditions: nanowire-mediated delivery; LPS 30 min
Method: as §1

[8] = tested on: conventional DCs (GM-CSF-induced BMDCs); type: cell-based, mouse
[9] = tested on: VSV; type: in vivo, mouse; conditions: mice, VSV intra-footpad, 6 hours post-infection
[10] = tested on: primary mouse lung fibroblasts (MLFs); conditions: 1 μM
[11] = mouse, in vivo; cited from earlier work
[12] = humans (Mross et al., 2008); cited from earlier work
[13] = tested on: BMDCs; test: SILAC-based phosphoproteomics of LPS-stimulated BMDCs pre-treated with BI 2536 versus DMSO
[14] = tested on: pDCs (Flt3L-induced BMDCs); test: qPCR and nCounter mRNA measurement in plasmacytoid DCs stimulated with CpG-A, CpG-B or EMCV; conditions: 1 μM
[15] = BMDCs, LPS, increasing amounts of BI 2536, dose-dependent
[16] = DCs stimulated with LPS, poly(I:C) or Pam3CSK4, 1 μM

Compound: COc1cc2ncn(-c3cc(OCc4ccccc4C(F)(F)F)c(C(N)=O)s3)c2cc1OC [5-(5,6-Dimethoxy-1H-benzimidazol-1-yl)-3-[[2-(trifluoromethyl)phenyl]methoxy]-2-thiophenecarboxamide]
- transcription of mRNAs for antiviral cytokines (Ifnb1, Cxcl10) ([1]; BMDCs, LPS): abrogate

Compound: CC[C@@H]1C(=O)N(C)c2cnc(Nc3ccc(C(=O)NC4CCN(C)CC4)cc3OC)nc2N1C1CCCC1 [BI 2536]
- antiviral genes among genes repressed by BI 2536 compared to DMSO ([2]; LPS): 67/194
- unique LPS- and/or poly(I:C)-induced genes repressed ([2]; downregulated 3-fold upon LPS or poly(I:C) stimulation): 311 genes
- antiviral genes among genes repressed by BI 2536 compared to DMSO ([2]; poly(I:C), P<1×10^−71, hypergeometric test): 99/193
- secreted IFN-β (ELISA) [3]: reduced; also recorded: strongly inhibits
- viability of BMDCs [4]: neither impacted
- cell cycle state of BMDCs [5]: neither impacted
- IRF3 nuclear translocation ([6]; nanowire-mediated delivery, poly(I:C) 2 h or LPS 45 min, dose-dependent): inhibited
- IRF3 translocation, delivery in solution ([6]; poly(I:C) 2 h, lesser extent than nanowire-mediated delivery): decreased
- NF-κB p65 localization [7]: did not affect
- mRNA level of Cxcl1 [8]: neither affected
- transcription of antiviral genes (Ifnb1 and Cxcl10) ([8]; 1 μM): inhibited
- Ifna2 mRNA (type I IFN α2) in popliteal lymph nodes [9]: inhibits
- VSV replication in the lymph node (VSV RNA levels) [9]: rapidly increased
- antiviral cytokine mRNA (Ifnb1, Cxcl10) in popliteal lymph nodes ([9]; 500 μg i.v. and 50 μg footpad): strongly suppressed; also recorded: inhibits
- drug-induced toxicity (cell viability, CellTiter-Glo) [10]: not due to drug-induced toxicity
- interferon production (Ifnb1 mRNA) [10]: failed to produce interferon
- tolerability [11]: good tolerability
- tolerability [12]: good tolerability
- Cxcl1 expression (qPCR) ([1]; BMDCs, LPS, increasing amounts of BI 2536): not significantly affected
- Cxcl10 mRNA level (qPCR) [1, 15]: reduced
- Ifnb1 mRNA level (qPCR) [1, 15]: reduced
- expression of 12 well-studied antiviral genes (qPCR) [1, 16]: strongly inhibited
- inflammatory gene expression (qPCR) [1, 16]: remained largely unaffected
- phosphorylation levels of Jun family cell cycle regulators (Jund) ([13]; LPS): decreased
- phosphorylation levels of mitotic kinases Nek6 and Nek7 ([13]; LPS): decreased
- phosphorylation levels of proteins in the TBK1/IKK-ε/IRF3 axis ([13]; LPS): unchanged
- distinct proteins from which the changed phosphopeptides derive ([13]; LPS 30 or 120 min, 1 μM): 413 proteins
- phosphopeptides with significant (P<0.001) change in level ([13]; LPS 30 or 120 min, 1 μM): 510 phosphopeptides
- CpG-B-specific signature genes (nCounter) ([14]; 6 h): a minor effect, if any
- signature genes induced by CpG-A alone or by both CpG-A and -B (nCounter) ([14]; 6 h): repressed
- transcription of mRNAs for Ifnb1, Ifna2 and Cxcl10 ([14]; CpG-A stimulation or EMCV infection (MOI 10)): nearly abrogated
- Cxcl1 mRNA ([14]; CpG-B): moderately increasing
- Cxcl10 mRNA ([14]; CpG-B): decreased

Compound: COc1ccc(Br)cc1/C=c1\sc2nc(=O)c(C)nn2c1=O [Poloxipan]
- transcription of mRNAs for antiviral cytokines (Ifnb1, Cxcl10) ([1]; BMDCs, LPS): abrogate
